Assay results reported in the NIST ThermoML archive (doi:10.1021/je201014c).
± gives the expanded uncertainty stated by the source.

Settings: 101.33 kPa, Liquid; for viscosity: Capillary tube (Ostwald / Ubbelohde) method; for mass density: Vibrating tube method

CN(C)C=O [dimethylformamide]
Settings | mass density [kg/m3] | viscosity [mPa·s]
283.15 K | 958.096 ± 0.4 | 1.016 ± 0.0065
288.15 K | 953.346 ± 0.4 | 0.9545 ± 0.0063
293.15 K | 948.584 ± 0.4 | 0.8985 ± 0.006
298.15 K | 943.817 ± 0.4 | 0.8455 ± 0.0058
303.15 K | 939.042 ± 0.4 | 0.799 ± 0.0056
308.15 K | 934.255 ± 0.41 | 0.7553 ± 0.0054
313.15 K | 929.458 ± 0.41 | 0.7172 ± 0.0052
318.15 K | 924.65 ± 0.41 | 0.6826 ± 0.0051
